Experimental findings from US20230183179A1, “NOVEL CELL METABOLISM MODULATING COMPOUNDS AND USES THEREOF” (CRESCENTA BIOSCIENCES, priority 2020, published 2023) are described below.

Molecules are shown by their SMILES.

Assay [1] concerns differentiated 3T3-L1 mouse adipocyte cells. The assay is described as follows: Adipocyte glucose consumption in differentiated 3T3-L1 cells (colorimetric glucose assay of the medium). The assay is classed as cell-based. The following applies: 3T3-L1, 24 h, compound 10 μM, loss of glucose from culture medium, mean fold change (compound/DMSO). The procedure, abridged: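 Differentiated 3T3-L1 mouse adipocytes (rosiglitazone/dexamethasone/IBMX/insulin induction, day 11) treated 24 h with compounds at 10 μM, 0.1% DMSO final. Medium glucose measured colorimetrically; consumption taken as glucose loss from medium versus cell-free control, expressed as mean fold change compound/DMSO ±SD.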

The target in assay [2] is T1, His6 tagged human recombinant FABP4 (Homo sapiens, UniProt P15090).
T1 construct: purchased Cayman Chemicals 10009549
T1 sequence (P15090 whole entry): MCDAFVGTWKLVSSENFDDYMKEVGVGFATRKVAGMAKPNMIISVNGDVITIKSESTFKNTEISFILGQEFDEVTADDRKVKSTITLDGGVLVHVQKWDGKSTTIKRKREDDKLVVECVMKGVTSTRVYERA
The assay is described as follows: FABP4 TR-FRET assay: displacement of fluorescent fatty acid BODIPY FL C12. The following applies: inhibition of BODIPY FL C12 binding to His6-FABP4; 1.2 μL of 1.085 mM compound in DMSO per well; triplicates, mean percent inhibition. The procedure, abridged: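 TR-FRET displacement of BODIPY FL C12 from His6-FABP4 bound by Tb-anti-His6 antibody, in Tris pH 7.4 buffer with γ-globulins, NP-40 and DTT; compound stock 1.085 mM in DMSO. Read after 10 min at room temperature as 520/615 nm ratio; mean % inhibition versus DMSO from triplicates.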
(In TR-FRET formats the signal depends on donor and acceptor labels being close together.)

Broadly, the fold induction is the ratio of treated to control signal. In general, inhibition refers to the change of the read-out against control, counted positive when it falls. With `CC(Oc1cc(-c2ccccc2)c2cc(CCc3ccccc3)ccc2n1)C(=O)O` (centres unmarked) [2-{[4-phenyl-6-(2-phenylethyl)quinolin-2-yl]oxy}propanoic acid], the fold induction at 10 µM in assay [1] worked out at 1.21. For the same compound, the inhibition at 1085 µM (stock) in assay [2] was found to be 34.1%.

Turning to `Clc1ccc2nc(N3CCCCC3)cc(-c3ccccc3)c2c1` [6-chloro-4-phenyl-2-(piperidin-1-yl)quinoline], the fold induction at 10 µM in assay [1] stood at 0.99. Further, in assay [2], the inhibition at 1085 µM (stock) is 64.3%.

With `COc1ccc2nc(N(C)CC(=O)O)cc(-c3ccccc3)c2c1` [2-[(6-methoxy-4-phenylquinolin-2-yl)(methyl)amino]acetic acid], the fold induction at 10 µM in assay [1] is 1.12. Also, the inhibition at 1085 µM (stock) in assay [2] turned out to be 101%.

In the case of `O=C1NC(=O)C(Cc2cc(-c3ccccc3)c3cc(CCc4ccccc4)ccc3n2)S1` (centres unmarked) [5-{[4-phenyl-6-(2-phenylethyl)quinolin-2-yl]methyl}-1,3-thiazolidine-2,4-dione], the fold induction at 10 µM in assay [1] is 1.45. For the same compound, the inhibition at 1085 µM (stock) in assay [2] was found to be 73.5%.

Take `CN(CC(=O)O)c1cc(-c2ccccc2)c2cc(CCc3ccc(Cl)cc3)ccc2n1` [2-({6-[2-(4-chlorophenyl)ethyl]-4-phenylquinolin-2-yl}(methyl)amino)acetic acid]: in assay [1], the fold induction at 10 µM worked out at 1.43. The inhibition at 1085 µM (stock) in assay [2] was 56.4%.

Regarding `CCCCc1ccc2nc(N3CCCC(C(=O)O)C3)cc(-c3cccc(C#N)c3)c2c1` (centres unmarked) [1-[6-butyl-4-(3-cyanophenyl)quinolin-2-yl]piperidine-3-carboxylic acid], the fold induction at 10 µM in assay [1] was 0.91. Besides, the inhibition at 1085 µM (stock) in assay [2] stood at 24.3%.

For the compound `CCCCCCc1ccc2nc(N(C)CC(=O)O)cc(Oc3cccnc3)c2c1` [2-{[6-hexyl-4-(pyridin-3-yloxy)quinolin-2-yl](methyl)amino}acetic acid], in assay [1], the fold induction at 10 µM turned out to be 1.33. In addition, in assay [2], the inhibition at 1085 µM (stock) was 85%.

As for `O=C(O)C1CCCN1c1cc(-c2ccccc2)c2cc(Cl)ccc2n1` (centres unmarked) [1-(6-chloro-4-phenylquinolin-2-yl)pyrrolidine-2-carboxylic acid], in assay [1], the fold induction at 10 µM was 1.08. For the same compound, in assay [2], the inhibition at 1085 µM (stock) worked out at 105%.

On to `CC(C)(c1cc(-c2ccccc2)c2cc(CCc3ccccc3)ccc2n1)c1nnn[nH]1` [4-phenyl-6-(2-phenylethyl)-2-[2-(1H-1,2,3,4-tetrazol-5-yl)propan-2-yl]quinoline], for which, in assay [1], the fold induction at 10 µM was found to be 1.2. Moreover, the inhibition at 1085 µM (stock) in assay [2] is 75%.

Take `CCCCc1ccc2nc(N(C)CC(=O)O)cc(-c3cccc(C)c3)c2c1` [2-{[6-butyl-4-(3-methylphenyl)quinolin-2-yl](methyl)amino}acetic acid]: the fold induction at 10 µM in assay [1] amounted to 1.4. The inhibition at 1085 µM (stock) in assay [2] was 82.4%.

Take `CCCCCOc1ccc2nc(N(C)CC(=O)O)cc(-c3ccccc3)c2c1` [2-{methyl [6-(pentyloxy)-4-phenylquinolin-2-yl]amino}acetic acid]: the fold induction at 10 µM in assay [1] stood at 1.27. Moreover, the inhibition at 1085 µM (stock) in assay [2] amounted to 102%.

On to `CN(CC(=O)O)c1cc(-c2ccccc2)c2cc(CCc3ccc4cccnc4c3)ccc2n1` [2-[methyl({4-phenyl-6-[2-(quinolin-7-yl)ethyl]quinolin-2-yl})amino]acetic acid], for which, in assay [1], the fold induction at 10 µM stood at 1.25. For the same compound, in assay [2], the inhibition at 1085 µM (stock) worked out at 43.5%.

As to `CCCCc1ccc2nc(N(C)CC(=O)O)cc(-c3cccc(O)c3)c2c1` [2-{[6-butyl-4-(3-hydroxyphenyl)quinolin-2-yl](methyl)amino}acetic acid], in assay [1], the fold induction at 10 µM is 1.28. Also, in assay [2], the inhibition at 1085 µM (stock) worked out at 83.8%.

`CCCCCCc1ccc2nc(OC(C)C(=O)O)cc(-c3ccncc3)c2c1` (centres unmarked) [2-{[6-hexyl-4-(pyridin-4-yl)quinolin-2-yl]oxy}propanoic acid]: the fold induction at 10 µM in assay [1] is 1.3. For the same compound, the inhibition at 1085 µM (stock) in assay [2] was determined as 21%.

For `CCCCCCCc1ccc2nc(N(C)CC(=O)O)cc(-c3ccc(F)cc3)c2c1` [2-([4-(4-fluorophenyl)-6-heptylquinolin-2-yl](methyl)amino}acetic acid], the fold induction at 10 µM in assay [1] amounted to 1.25. Besides, the inhibition at 1085 µM (stock) in assay [2] is 75.6%.

Take `CCCCCCc1ccc2nc(N(C)CC(=O)O)cc(N3CCC(F)(F)C3)c2c1` [2-{[4-(3,3-difluoropyrrolidin-1-yl)-6-hexylquinolin-2-yl](methyl)amino}acetic acid]: the fold induction at 10 µM in assay [1] worked out at 1.28. The inhibition at 1085 µM (stock) in assay [2] worked out at 50.5%.

Turning to `CCCCc1ccc2nc(OCC(=O)O)cc(-c3ccccc3)c2c1` [2-[(6-butyl-4-phenylquinolin-2-yl)oxy]acetic acid], in assay [1], the fold induction at 10 µM was determined as 1.12. Moreover, in assay [2], the inhibition at 1085 µM (stock) was 11.3%.

`NC(=O)c1cccc(-c2cc(OCC(=O)O)nc3ccc(Br)cc23)c1` [2-{[6-bromo-4-(3-carbamoylphenyl)quinolin-2-yl]oxy}acetic acid]: the fold induction at 10 µM in assay [1] amounted to 1. The inhibition at 1085 µM (stock) in assay [2] amounted to 19.1%.

Consider `CN(CC(=O)O)c1cc(-c2ccccc2)c2cc(CCCc3ccccc3)ccc2n1` [2-{methyl[4-phenyl-6-(3-phenylpropyl)quinolin-2-yl]amino}acetic acid], for which, in assay [1], the fold induction at 10 µM came out at 1.31. In assay [2], the inhibition at 1085 µM (stock) worked out at 97%.

For `CCCCc1ccc2nc(N3CCCC3C(=O)O)cc(-c3ccccc3)c2c1` (centres unmarked) [1-(6-butyl-4-phenylquinolin-2-yl)pyrrolidine-2-carboxylic acid], the fold induction at 10 µM in assay [1] amounted to 1.12. Moreover, the inhibition at 1085 µM (stock) in assay [2] was found to be 92.5%.

As for `CN(CC(=O)O)c1cc(-c2ccccc2)c2cc(CCc3ccc4c(c3)CCCN4)ccc2n1` [2-[methyl({4-phenyl-6-[2-(1,2,3,4-tetrahydroquinolin-6-yl)ethyl]quinolin-2-yl})amino]acetic acid], the fold induction at 10 µM in assay [1] was determined as 1.31. Further, the inhibition at 1085 µM (stock) in assay [2] is 44.7%.

Consider `CN(CC(=O)O)c1cc(-c2ccccc2)c2cc(CCN3CCCCC3)ccc2n1` [2-[methyl({4-phenyl-6-[2-(piperidin-1-yl)ethyl]quinolin-2-yl})amino]acetic acid], for which, in assay [1], the fold induction at 10 µM came out at 0.96. Also, the inhibition at 1085 µM (stock) in assay [2] was under 0%.

In the case of `CCCc1cccc(-c2ccc3nc(N(C)CC(=O)O)cc(-c4ccccc4)c3c2)c1` [2-{methyl[4-phenyl-6-(3-propylphenyl)quinolin-2-yl]amino}acetic acid], the fold induction at 10 µM in assay [1] is 1.07. Moreover, in assay [2], the inhibition at 1085 µM (stock) came to 61.2%.

`CCCCCCc1ccc2nc(N3CCC(C)(C(=O)O)C3)cc(-c3ccccc3)c2c1` (centres unmarked) [1-(6-hexyl-4-phenylquinolin-2-yl)-3-methylpyrrolidine-3-carboxylic acid]: in assay [1], the fold induction at 10 µM was 1.36. The inhibition at 1085 µM (stock) in assay [2] is 36.4%.

Regarding `CCCCc1ccc2nc(OCC(=O)O)cc(-c3cccc(C#N)c3)c2c1` [2-{[6-butyl-4-(3-cyanophenyl)quinolin-2-yl]oxy}acetic acid], in assay [1], the fold induction at 10 µM stood at 1.12. Further, the inhibition at 1085 µM (stock) in assay [2] worked out at 36.2%.

Take `CCCCCCCCc1ccc2nc(N(C)CC(=O)O)cc(Oc3cccc(F)c3)c2c1` [2-{[4-(3-fluorophenoxy)-6-octylquinolin-2-yl](methyl)amino}acetic acid]: the fold induction at 10 µM in assay [1] came out at 1.32. In assay [2], the inhibition at 1085 µM (stock) is 74.6%.

For `CCCCCCc1ccc2nc(N(C)CC(=O)O)cc(Oc3ccncc3)c2c1` [2-{[6-hexyl-4-(pyridin-4-yloxy)quinolin-2-yl](methyl)amino}acetic acid], the fold induction at 10 µM in assay [1] is 1.02. Besides, the inhibition at 1085 µM (stock) in assay [2] is 10.7%.

For the compound `CN(CC(=O)O)c1cc(-c2ccccc2)c2cc(CCc3cnccn3)ccc2n1` [2-[methyl({4-phenyl-6-[2-(pyrazin-2-yl)ethyl]quinolin-2-yl})amino]acetic acid], in assay [1], the fold induction at 10 µM came to 1.28. Besides, the inhibition at 1085 µM (stock) in assay [2] came to 4.98%.

On to `CN(CC(=O)O)c1cc(-c2ccccc2)c2cc(OCc3ccccc3)ccc2n1` [2-{[6-(benzyloxy)-4-phenylquinolin-2-yl](methyl)amino}acetic acid], for which the fold induction at 10 µM in assay [1] is 1.27. Also, the inhibition at 1085 µM (stock) in assay [2] was 84.2%.

For `CCCCc1ccc2nc(N3CCCCC3)cc(-c3ccccc3)c2c1` [6-butyl-4-phenyl-2-(piperidin-1-yl)quinoline], the fold induction at 10 µM in assay [1] is 0.99. Also, the inhibition at 1085 µM (stock) in assay [2] was determined as 56.5%.

For the compound `CCCCCCc1ccc2nc(N(C)CC(=O)O)c(C)c(N3CCOCC3)c2c1` [2-{[6-hexyl-3-methyl-4-(morpholin-4-yl)quinolin-2-yl](methyl)amino}acetic acid], the fold induction at 10 µM in assay [1] was determined as 1.17. The inhibition at 1085 µM (stock) in assay [2] came out at 93.8%.

Turning to `COc1ccccc1CCc1ccc2nc(N(C)CC(=O)O)cc(-c3ccccc3)c2c1` [2-({6-[2-(2-methoxyphenyl)ethyl]-4-phenylquinolin-2-yl}(methyl)amino)acetic acid], the fold induction at 10 µM in assay [1] was 1.11. For the same compound, the inhibition at 1085 µM (stock) in assay [2] turned out to be 65.1%.

With `CCCCCCc1ccc2nc(N(C)CC(=O)O)c(C)c(-c3ccc(F)cc3)c2c1` [2-([4-(4-fluorophenyl)-6-hexyl-3-methylquinolin-2-yl](methyl)amino}acetic acid], the fold induction at 10 µM in assay [1] is 1.19. The inhibition at 1085 µM (stock) in assay [2] came to 111%.

Take `CN(CC(=O)O)c1cc(-c2ccccc2)c2cc(CCc3ccc4ncccc4c3)ccc2n1` [2-[methyl({4-phenyl-6-[2-(quinolin-6-yl)ethyl]quinolin-2-yl})amino]acetic acid]: the fold induction at 10 µM in assay [1] turned out to be 1.4. In assay [2], the inhibition at 1085 µM (stock) was 34.7%.
